Measured values as given in US12636284B2, “Compositions for use in the prevention and/or treatment of intellectual disability and neurodegenerative diseases in a subject with down syndrome” (UNIVERSITA' DEGLI STUDI DI ROMA “LA SAPIENZA”, priority 2021, dated 2026).

Legend:
Ts2Cje mice = experiment: Novel object recognition (NOR) cognitive test after intranasal treatment; type: in vivo, mouse; conditions: Ts2Cje mice 9 months of age; sitagliptin 5 mM intra-nasally, 10 μL/nostril, once a day for 21 days
From the text: Finally, animals were sacrificed using cervical dislocation. […] The Novel object recognition (NOR) test is a relatively fast and efficient means of testing different stages of learning and memory in mice. The test is based on a minimum of three sessions: a habituation session (Day 1), a training session (Day 2) and a test session (Day 3). Training simply involves visual exploration of two identical objects, while the test session involves replacing one of the previously explored objects with a new object. Since rodents have an innate preference for novelty, a rodent that remembers the familiar object will spend more time exploring the new object. […] In the habituation stage, each animal can freely explore the arena for 10 minutes (50 cm deep×30 cm wide×30 cm high) in the absence of objects. During the training stage, a single animal is placed in the arena containing two identical objects (two balls) for 10 min. In the testing stage, after 24 hours, the animal is brought back to the arena with two objects, one is the familiar object and the other is a new object (ball+lego). […] In the analysis stage, the discrimination index (DI) and preference index (PI) are evaluated. The discrimination index (DI) allows calculation of the animal's ability to discriminate between new (TN) and familiar (TF) objects [DI=(TN−TF)/(TN+TF)]. […]

GSK3b protein = experiment: GSK3b activation (pSer9/pTyr216 ratio) in primary hippocampal neurons isolated from Ts2Cje mice; type: cell-based, mouse; conditions: 1, 5, 10 μM for 24 hours
Method: For Western blots, 20 μg of proteins from the hippocampus of mice belonging to the four experimental groups were separated by 4-15% SDS-PAGE CriterionTM […] (Bio-rad, Hercules, CAUSE). […] Therefore, the gel, once the image has been acquired, represents the total of the loaded proteins (Total Load), which will then be used to normalize the specific proteins to be examined. After electrophoresis and gel imaging, proteins are transferred via the semi-dry TransBlot Turbo apparatus (Bio-Rad Laboratories) onto nitrocellulose membranes (Bio-Rad, Hercules, CA, USA). Nitrocellulose membranes are blocked with 3% bovine serum albumin (BSA) in a solution of Tween 20-TBS and incubated overnight at 4° C. using specific primary antibodies: p([…])-GSK3B (1:1000, Santa Cruz, #sc-135653), p(S9)-GSK3β (1:1000, Cell Signaling, #5558S), GSK3β (1:1000 Abcam, #93926) and DYRK1A (1:1000, Cell Signaling, #8765S), MAPK44/42 (1:1000, Cell Signaling, #9102), p[…])-MAPK44/42 (1 1000, Cell Signaling, #9101), Akt (1:2000, Bio-Rad, # vma00253K), p(S473) Akt (1:1000, Cell Signaling, #4060S). After three washes with a T-TBS buffer solution, membranes were incubated for 1 hour at room temperature with the secondary antibodies. Secondary antibodies with peroxidase activity are anti-mouse or anti-rabbit (1:5000, Bio-rad, Hercules, CA, USA). […] Finally, the results obtained were analyzed using the ImageLab program (Bio-rad, Hercules, CA, USA). […] In order to isolate primary hippocampal neurons, hippocampi from Ts and euploid mice were mechanically dissociated in PBS (with Ca^2+ and […]) and centrifuged (3 minutes, 1100 rpm, 25° C.). Subsequently, the pellet was resuspended in 0.25% trypsin solution and centrifuged further for 3 minutes at 1100 rpm at Tamb. At this point, the cell extract was resuspended in MEM 1 culture medium (Minimum Essential Medium complemented with fetal bovine serum (FBS-1%), L-glutamine 200 mM (1%), glucose 25 mM (1%), gentamicin 0.1 mg/ml) and centrifuged for 10 minutes, 1100 rpm at 25° C. […]

## N[C@@H](CC(=O)N1CCn2c(nnc2C(F)(F)F)C1)Cc1cc(F)c(F)cc1F [sitagliptin, (R)-4-oxo-4-[3-(trifluoromethyl)-5,6-dihydro[1,2,4]triazole[4,3-a]pyrazin-7(8H)-yl]-1-(2,4,5-trifluorophenyl)butan-2-amine]
Ts2Cje mice
  cognitive performance, novel object recognition (NOR): marked improvement in cognitive performance
GSK3b protein
  activity of the GSK3B protein in Ts2Cje neurons: significant increase
